pIC50: −log10 of the molar value. Like-named read-outs stand apart in the source and are kept apart here.
Columns and labels:
[1] = molecular target: T1, α1G T-type calcium channel (Rattus norvegicus, UniProt O54898); assay: Whole cell patch clamp on HEK 293 cells expressing α1G T-type calcium channel; type: cell-based; conditions: for inhibition at 10 µM: HEK293; for channel inhibitory effect relative to Mibefradil (comparing IC50 values): HEK 293 cells (α1G), IC50 compared with Mibefradil; for pIC50: read-out: IC50, HEK293 cells (α1G)
T1 construct: expressed in transfected cells; Perez-Reyes, University of Virginia
Method: HEK 293 cells were cultured in Dulbecco's modified Eagle's medium (DMEM) supplemented with 10% fetal bovine serum (FBS) and 1% penicillin/streptomycin (v/v) in 36.5° C. humidified incubator (95% air-5% CO2). The culture solution was replaced with a fresh medium every 3 to 4 days and the cultured cells were subjected to sub-culture every week. At this time, the culture solution was treated with G-418 (0.5 mg/ml) solution so that only HEK 293 cells expressing α1G T-type calcium channel can grow. The cells used for the T-type calcium channel activity assay were cultured on a cover slip coated with poly-L-lysine (0.5 mg/ml) whenever sub-cultured and their calcium channel activity was recorded 2 to 7 days after the cultivation. The current of the T-type calcium channel at a single cell level was measured according to an electrophysiological whole cell patch clamping method using EPC-9 amplifier (HEKA, German). At this time, a cell exterior solution [140 mM NaCl, 2 mM CaCl2, 10 mM HEPES (pH 7.4)] and a cell interior solution [KCl 130 mM, HEPES 10 mM, EGTA 11 mM, MgATP 5 mM (pH 7.4)] were employed. The inward current caused by the T-type calcium channel activation was measured according to a T-type calcium channel protocol activated at low current. Such current occurs when the cells were converted into a whole-cell recording mode by stabbing a microglass electrode having 3-4 MΩ resistance, which was filled with the cell interior solution into a single cell and depolarized at −30 mV (50 ms duration period) every 10 seconds with fixing membrane potential to −100 mV.
In order to confirm whether the cells and methods used in Test Example 2 are a suitable screening system for selecting T-type calcium channel blockers, the results obtained in Example 2 were compared with those of α1G T-type calcium channel study reported in a public document (Monteil, A. et al., J. Biol. Chem. 275, 6090-6100, 2000). […] Thus, the candidate compounds were subjected to a test for their inhibitory effects on the T-type calcium channel according to the screening system of the present invention, as follows. Each compound was dissolved in 100% dimethylsulfoxide (DMSO) to prepare 10 mM stock solution. The inhibitory effect on the T-type calcium channel current was examined in 10 μM sample solution (containing 0.1% DMSO) prepared by diluting the stock solution by 1000-fold. The cells were treated with each compound at a concentration of 10 μM for 30 to 60 sec with the cell exterior solution.

[2] = system: Na+ channel; assay: Patch clamp of sodium current in MPG (major pelvic ganglion) neurons; type: cell-based, rat; conditions: MPG neuron, 10 μM; for selectivity for the calcium channel versus the sodium channel: from Table 3; for Inhibitory effect, Na+ channel: n.i. = no inhibitory effect
Method: In order to examine the selectivity of the compound of the present invention for other ion channels, the inhibitory effects of KYS05001, KYS05041 and KYS05042 on […] and high voltage-activated Ca2+ channel (HVA) were measured according to a conventional method (Lee, J.-H. et al., J. Neurophysiol. 2002, 87, 2844-2850) using MPG (major pelvic ganglion).
Male Sprague-Dawley rats having about 250 g of an average body weight were employed as experimental animals. After the rats were anesthetized with sodium pentobarbital (50 mg/kg, i.p.), the abdomen was cut open immediately. MPG located on the left side of the prostate was extracted and then transferred in cold (4° C.) Hank's balanced salt solution (HBSS, GibcoBRL). The connective tissue encompassing the ganglion was stripped therefrom and a small gap was made carefully on the naked ganglion with a sharp knife. Then, the ganglion was cultured in 10 ml of modified Earle's balanced salt solution (EBSS, pH 7.4, GibcoBRL) supplemented with 0.7 mg/ml of collagenase (type D), 0.3 mg/ml of trypsin and 0.1 mg/ml of DNAse type I at 35° C. for 1 hour (Zhu et al., J. Physiol. Lond. 1995, 489, 363-375). At this time, 3.6 g/l of glucose and 10 mM HEPES were added to EBSS. After the cultivation was completed, the culture flask was shaken to separate call clusters into a single nerve cell and subjected to centrifugation at 1000 rpm with a clinical centrifuge (International Equipment Company, Mass., U.S.A.). The separated single nerve cells were re-suspended in MEM (GibcoBRL) supplemented with 10% fetal bovine serum, 1% glutamine and 1% penicillin/streptomycin. They were then spread on a polystyrene culture dish (35 mm) coated with poly-L-lysine. The culture dish was incubated at 37° C. humidified incubator (95% air-5% CO2) and the cells were used in the following experiment within 24 hours after the separation.
The voltage-dependent calcium and sodium current were recorded according to a typical patch clamping method using a patch clamp amplifier (Axopatch 1D, Axon Instruments, Foster City, Calif., U.S.A.) at a whole-cell ruptured configuration (Hamill et al., Pflügers Arch. 1981, 391, 85-100). An electrode was made from a borosilicate glass capillary tube (outer diameter; 1.65 mm, inner diameter; 1.2 mm, Corning 7052, Garner Glass Co., Claremont, Calif., U.S.A.) using P-97 Flaming-Brown micropipette puller (Sutter Instrument Co., Novato, Calif., U.S.A.) and forged smoothly by heating with a microforge. The electrode showing 1˜3 MΩ of resistance when filled with a solution was used for the following experiment. The culture dish containing the nerve cells was placed on an inverted microscope and the cell exterior solution was flowed into the dish at a flow rate of about 1˜2 ml/min. The membrane capacitance and series resistance were corrected by 80% or more with an amplifier. The voltage generation and record of calcium current were carried out using S4 software (provided by Dr. Stephen R. Ikeda, National Institute on Alcohol Abuse and Alcoholism, NIH, USA) equipped in Macintosh computer, which was connected to an analogue/digital converter (Digidata 1200, Axon Instruments Co.). The calcium current, which passed through a low band pass filter at 2˜5 kHz, was stored in Macintosh computer and analyzed with IGOR PRO (Wave-Metrics, Lake Oswego, Oreg., U.S.A.). All the experiments were conducted at a room temperature ranging from 20 to 22° C.
The electrode for measuring the calcium current was filled with the solution comprising 120 mM N-methyl-D-glucamine (NMG) methanesulfonate (MS), 20 mM tetraethylammonium (TEA)-MS, 20 mM HCl, 11 mM EGTA, 10 mM HEPES, 1 mM CaCl2, 4 mM MgATP, 0.3 mM Na2GTP and 14 mM tris-phosphocreatine (pH 7.2, 290 mOsm). The extracellular infusion fluid was composed of 140 mM MS, 145 mM TEA-OH, 10 mM HEPES, 15 mM glucose, 10 mM CaCl2 and 0.0003 mM tetrodotoxin (TTX, pH 7.4, 320 mOsm). […]

[3] = HEK 293 cells expressing α1G, 30 to 60 sec treatment, read-out: inhibitory effect on peak current, HEK293 cells (α1G) at 10 μM
[4] = Table 3 title says MPG neuron, values equal HEK 293 (α1G) values of Table 2, read-out: Inhibitory effect, Ca2+ channel T-type (LVA)

T1 sequence (O54898 whole entry): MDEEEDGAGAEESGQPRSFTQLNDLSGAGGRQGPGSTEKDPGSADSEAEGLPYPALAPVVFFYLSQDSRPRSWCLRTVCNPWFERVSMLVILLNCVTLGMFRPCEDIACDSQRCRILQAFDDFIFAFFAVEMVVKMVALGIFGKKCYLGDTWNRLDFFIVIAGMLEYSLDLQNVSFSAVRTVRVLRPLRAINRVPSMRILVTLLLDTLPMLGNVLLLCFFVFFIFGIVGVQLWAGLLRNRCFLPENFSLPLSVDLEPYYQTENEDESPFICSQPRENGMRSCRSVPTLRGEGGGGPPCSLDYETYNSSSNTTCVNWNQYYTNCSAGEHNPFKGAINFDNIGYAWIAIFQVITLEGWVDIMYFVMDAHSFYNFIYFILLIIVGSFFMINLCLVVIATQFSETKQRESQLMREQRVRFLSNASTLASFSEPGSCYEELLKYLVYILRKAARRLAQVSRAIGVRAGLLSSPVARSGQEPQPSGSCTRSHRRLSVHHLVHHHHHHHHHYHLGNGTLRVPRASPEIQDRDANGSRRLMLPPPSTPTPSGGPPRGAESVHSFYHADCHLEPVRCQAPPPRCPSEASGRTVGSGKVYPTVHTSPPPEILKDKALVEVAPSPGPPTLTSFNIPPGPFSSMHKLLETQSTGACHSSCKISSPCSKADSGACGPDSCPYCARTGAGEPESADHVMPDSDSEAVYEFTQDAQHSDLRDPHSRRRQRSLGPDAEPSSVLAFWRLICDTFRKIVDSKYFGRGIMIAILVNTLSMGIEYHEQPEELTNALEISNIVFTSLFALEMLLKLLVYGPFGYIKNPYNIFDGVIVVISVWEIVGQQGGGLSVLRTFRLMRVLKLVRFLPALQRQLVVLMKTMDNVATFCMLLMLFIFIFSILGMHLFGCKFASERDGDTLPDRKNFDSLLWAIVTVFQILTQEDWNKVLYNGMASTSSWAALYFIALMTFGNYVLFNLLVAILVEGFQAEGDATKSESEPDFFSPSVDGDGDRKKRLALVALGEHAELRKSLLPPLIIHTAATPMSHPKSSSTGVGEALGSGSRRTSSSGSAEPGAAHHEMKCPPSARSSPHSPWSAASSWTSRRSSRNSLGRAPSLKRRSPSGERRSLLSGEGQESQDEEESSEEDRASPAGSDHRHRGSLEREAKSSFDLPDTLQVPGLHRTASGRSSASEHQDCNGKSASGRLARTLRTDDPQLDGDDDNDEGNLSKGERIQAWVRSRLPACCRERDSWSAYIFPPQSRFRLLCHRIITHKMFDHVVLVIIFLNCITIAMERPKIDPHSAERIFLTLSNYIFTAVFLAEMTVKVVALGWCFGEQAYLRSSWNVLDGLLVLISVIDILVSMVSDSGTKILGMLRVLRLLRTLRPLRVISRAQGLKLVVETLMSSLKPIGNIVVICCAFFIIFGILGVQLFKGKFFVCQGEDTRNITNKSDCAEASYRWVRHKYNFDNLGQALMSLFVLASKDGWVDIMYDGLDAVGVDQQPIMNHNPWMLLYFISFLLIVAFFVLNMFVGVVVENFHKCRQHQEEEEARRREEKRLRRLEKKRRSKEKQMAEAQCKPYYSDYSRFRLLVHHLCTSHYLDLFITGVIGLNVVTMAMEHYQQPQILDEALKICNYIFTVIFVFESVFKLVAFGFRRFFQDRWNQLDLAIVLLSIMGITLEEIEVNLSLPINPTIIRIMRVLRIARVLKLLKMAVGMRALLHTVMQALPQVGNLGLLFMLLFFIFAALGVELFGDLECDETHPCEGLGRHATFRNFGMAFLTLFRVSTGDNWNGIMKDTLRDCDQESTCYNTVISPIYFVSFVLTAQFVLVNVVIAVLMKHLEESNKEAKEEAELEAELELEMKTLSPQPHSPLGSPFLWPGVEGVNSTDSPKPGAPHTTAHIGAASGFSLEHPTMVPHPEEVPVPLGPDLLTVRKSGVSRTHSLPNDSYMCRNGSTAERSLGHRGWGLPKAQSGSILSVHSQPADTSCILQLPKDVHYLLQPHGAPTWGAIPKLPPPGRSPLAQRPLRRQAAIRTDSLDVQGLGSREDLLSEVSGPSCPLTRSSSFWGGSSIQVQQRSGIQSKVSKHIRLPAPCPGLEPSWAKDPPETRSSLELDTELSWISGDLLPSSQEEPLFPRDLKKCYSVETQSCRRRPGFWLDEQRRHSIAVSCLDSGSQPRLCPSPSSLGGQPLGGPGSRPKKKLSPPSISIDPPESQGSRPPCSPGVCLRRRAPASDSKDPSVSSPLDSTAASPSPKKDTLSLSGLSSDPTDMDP

Row | SMILES | inhibition at 10 µM [1, 3] | inhibition at 10 µM [1, 4] | channel inhibitory effect relative to Mibefradil (comparing IC50 values) [1] | pIC50 ([1]; HEK 293 cells expressing α1G) | selectivity for the calcium channel versus the sodium channel [2] | Inhibitory effect, Na+ channel [2]
1 | O=C(CC1c2ccccc2N=C(N2CCCCC2)N1c1ccccc1)NCc1ccccc1 (stereo not drawn) [KYS05001] | 90.1% | 90.1% | almost the same calcium channel inhibitory effect as Mibefradil | 6.05 | higher selectivity for the calcium channel than the sodium channel | n.i.^b
2 | Cc1ccc(S(=O)(=O)Nc2ccc(CNC(=O)CC3c4ccccc4N=C(N4CCCCC4)N3c3ccccc3)cc2)cc1 (stereo not drawn) [KYS05041, 4-{N-[4-(4-methylbenzenesulfonylamido)benzyl]acetamido}-3-phenyl-2-(piperidine-1-yl)-3,4-dihydroquinazoline] | 89.9% | 89.9% | about 3.4 fold | 6.60 | higher selectivity for the calcium channel than the sodium channel | n.i.^b
3 | O=C(CC1c2ccccc2N=C(N2CCCCC2)N1c1ccccc1)NCc1ccc(NS(=O)(=O)c2ccc(F)cc2)cc1 (stereo not drawn) [KYS05042, 4-{N-[4-(4-fluorobenzenesulfonylamido)benzyl]acetamido}-3-phenyl-2-(piperidine-1-yl)-3,4-dihydroquinazoline] | 89% | 89% | ~4.2 fold | 6.70 | higher selectivity for the calcium channel than the sodium channel | n.i.^b

From US7271260B2, “3,4-dihydroquinazoline derivatives as T-type calcium channel blockers and method of preparing the same” (Korea Institute of Science and Technology, priority 2004, dated 2007)
